From patent publication US20250257098A1, “NOVEL SST4 SELECTIVE AGONISTS AS NON-OPIOID ANALGESICS” (KØBENHAVNS UNIVERSITET, priority 2022, published 2025)

Experiments:
[1] = target: T1, human somatostatin receptor SST4 (Homo sapiens, UniProt P31391); format: cell-based
T1 construct: expressed in transfected cells; host or cells: HTLA cells

[2] = target: T2, human somatostatin receptor SST2 (Homo sapiens, UniProt P30874); format: cell-based
T2 construct: expressed in transfected cells; host or cells: HTLA cells

[3] = target: T3, human somatostatin receptor SST5 (Homo sapiens, UniProt P35346); format: cell-based
T3 construct: expressed in transfected cells; host or cells: HTLA cells

[4] = tested on: LPS-stimulated mouse macrophages; format: cell-based, BALB/c mice
[5] = tested on: mouse model of post-surgical pain; design: species or system mice; conditions: in vivo
[6] = tested on: model of chronic neuropathic pain (spared nerve injury, SNI); design: species or system C57BL/6NRj mice; conditions: mouse, in vivo
[7] = target: T4, human somatostatin receptor SST1 (Homo sapiens, UniProt P30872); format: cell-based
T4 construct: expressed in transfected cells; host or cells: HTLA cells

[8] = target: T5, human somatostatin receptor SST3 (Homo sapiens, UniProt P32745); format: cell-based
T5 construct: expressed in transfected cells; host or cells: HTLA cells
T5 sequence (P32745 whole entry): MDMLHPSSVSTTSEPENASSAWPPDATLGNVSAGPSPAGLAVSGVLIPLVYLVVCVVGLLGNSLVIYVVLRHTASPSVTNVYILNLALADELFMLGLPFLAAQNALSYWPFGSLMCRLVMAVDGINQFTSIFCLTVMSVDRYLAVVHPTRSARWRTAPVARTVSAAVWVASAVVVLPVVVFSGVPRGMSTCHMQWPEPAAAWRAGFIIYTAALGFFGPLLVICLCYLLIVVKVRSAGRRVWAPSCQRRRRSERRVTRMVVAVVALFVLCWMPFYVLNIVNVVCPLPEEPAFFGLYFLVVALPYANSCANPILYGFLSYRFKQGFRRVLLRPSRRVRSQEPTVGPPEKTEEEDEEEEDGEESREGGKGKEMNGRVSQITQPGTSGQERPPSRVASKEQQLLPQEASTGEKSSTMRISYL

T1 sequence (P31391 whole entry): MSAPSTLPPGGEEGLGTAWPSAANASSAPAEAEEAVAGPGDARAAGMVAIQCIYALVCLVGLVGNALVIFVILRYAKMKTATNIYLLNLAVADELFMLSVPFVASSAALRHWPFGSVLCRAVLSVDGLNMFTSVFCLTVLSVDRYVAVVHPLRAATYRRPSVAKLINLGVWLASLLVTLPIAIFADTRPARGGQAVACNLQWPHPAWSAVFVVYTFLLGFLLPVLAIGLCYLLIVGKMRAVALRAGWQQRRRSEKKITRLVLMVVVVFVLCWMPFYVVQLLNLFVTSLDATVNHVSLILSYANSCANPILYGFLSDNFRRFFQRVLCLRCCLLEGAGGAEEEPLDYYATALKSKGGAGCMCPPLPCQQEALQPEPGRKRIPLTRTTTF
T3 sequence (P35346 whole entry): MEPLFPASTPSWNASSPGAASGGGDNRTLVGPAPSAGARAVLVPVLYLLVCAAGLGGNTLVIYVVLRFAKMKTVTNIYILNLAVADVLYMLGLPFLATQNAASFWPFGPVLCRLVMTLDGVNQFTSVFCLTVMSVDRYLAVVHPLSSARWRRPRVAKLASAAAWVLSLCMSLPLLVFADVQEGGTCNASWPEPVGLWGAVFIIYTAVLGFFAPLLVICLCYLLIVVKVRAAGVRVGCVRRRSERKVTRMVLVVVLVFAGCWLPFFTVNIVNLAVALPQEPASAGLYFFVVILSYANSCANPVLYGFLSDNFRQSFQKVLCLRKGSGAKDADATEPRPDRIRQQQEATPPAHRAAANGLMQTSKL
T2 sequence (P30874 whole entry): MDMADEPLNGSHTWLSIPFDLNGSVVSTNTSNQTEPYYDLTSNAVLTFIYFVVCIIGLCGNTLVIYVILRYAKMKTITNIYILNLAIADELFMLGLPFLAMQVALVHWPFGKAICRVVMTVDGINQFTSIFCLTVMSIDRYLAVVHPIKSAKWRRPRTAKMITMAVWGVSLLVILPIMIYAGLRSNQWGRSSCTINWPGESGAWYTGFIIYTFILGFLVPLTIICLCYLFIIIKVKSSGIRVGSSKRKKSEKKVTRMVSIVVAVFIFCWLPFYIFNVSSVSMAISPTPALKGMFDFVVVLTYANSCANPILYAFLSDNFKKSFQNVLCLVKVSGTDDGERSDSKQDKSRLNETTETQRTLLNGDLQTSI
T4 sequence (P30872 whole entry): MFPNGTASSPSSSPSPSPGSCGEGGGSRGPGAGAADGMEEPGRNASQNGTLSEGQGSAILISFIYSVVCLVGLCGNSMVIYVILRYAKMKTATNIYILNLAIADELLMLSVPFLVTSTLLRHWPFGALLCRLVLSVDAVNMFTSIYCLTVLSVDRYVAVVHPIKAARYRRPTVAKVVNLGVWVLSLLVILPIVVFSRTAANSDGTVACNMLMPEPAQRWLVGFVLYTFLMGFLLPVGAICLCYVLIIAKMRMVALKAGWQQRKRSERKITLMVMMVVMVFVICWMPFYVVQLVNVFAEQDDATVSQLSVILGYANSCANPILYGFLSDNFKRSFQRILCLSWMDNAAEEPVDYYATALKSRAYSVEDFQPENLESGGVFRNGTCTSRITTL

With PVCWKFGCPL [HSH-109, PVCwKFGCOL] the “apparent potency at SST4” value [1] was “low nanomolar range”, the “potency compared with Cont-Ro1” value [1] was “more potent” and the “selectivity for SST4 compared with Cont-Ro1” value [1] was “more selective for SST4 than Cont-Ro1”. The “activation of SST2” value [2] was “did not significantly activate”, the “activation of SST5” value [3] was “did not significantly activate” and the “reduction of MCP1 levels” value [4] was ~47%. The “reduction of TNFα levels” value [4] was ~62%, the “area under the curve larger than for Cont-Ro1” value [5] was 39% and the “duration of effect compared with Cont-Ro1” value [5] was “longer lasting”. For the same sequence, the “duration of effect versus morphine positive control” value [5] was “longer lasting than the morphine positive control”, the “effect level compared with Cont-Ro1” value [5] was “tendency for a higher effect level of HSH-109 over Cont-Ro1” and the expected efficacy [5] was “expected to be fully efficacious”. For the same sequence, the reduction of hypersensitivity [5] was “robust reduction of hypersensitivity”, the “reduction of mechanical hypersensitivity” value [6] was “very robust reduction of mechanical hypersensitivity” and the “apparent potency at SST1” value [7] was “low micromolar range”. For the same sequence, the “activation of SST3” value [8] was “did not significantly activate”.
